Laboratory results from DBAASP.
Converted amounts (≈) assume the structure as drawn. “And” between values parts separate entries of the source, which are not always exact repeats. Identical values can stand only once.

Tests used:
Experiment in all cases: ≥ marks a high value that may be exact or a test limit, other limits are often not marked, values filed in µg/mL are converted to µM
[1] = system: Candida krusei ATCC 200917
[2] = system: Pseudomonas aeruginosa ATCC 9027
Cryptococcus neoformans = system: Cryptococcus neoformans
[3] = system: Escherichia coli ATCC 2592
[4] = system: Candida albicans ATCC 36232
[5] = system: Staphylococcus aureus ATCC 6538
Candida tropicalis = system: Candida tropicalis
[6] = system: Micrococcus luteus ATCC 9341
Candida glabrata = system: Candida glabrata
Candida albicans = system: Candida albicans
[7] = system: Candida albicans ATCC 200955
[8] = system: Candida krusei ATCC 90878
Pseudomonas fluorescens = system: Pseudomonas fluorescens
[9] = system: Pseudomonas aeruginosa M917
[10] = system: Salmonella enterica serovar Typhimurium
[11] = system: Pseudomonas aeruginosa M76
Staphylococcus aureus = system: Staphylococcus aureus
Escherichia coli UB1005 = system: Escherichia coli UB1005
[12] = system: Pseudomonas aeruginosa M1251
[13] = system: Achromobacter xylosoxidans
[14] = system: Stenotrophomonas maltophilia
Pseudomonas aeruginosa = system: Pseudomonas aeruginosa
[15] = system: Pseudomonas aeruginosa M1426
[16] = system: Pseudomonas aeruginosa R70
Escherichia coli MG1655 = system: Escherichia coli MG1655
Aeromonas hydrophila = system: Aeromonas hydrophila
Vibrio harveyi = system: Vibrio harveyi
[17] = system: Escherichia coli BW25113 ΔsbmA
[18] = system: Acinetobacter baumannii ATCC 19606
[19] = system: Pseudomonas aeruginosa ATCC 27853
Escherichia coli BW25113 = system: Escherichia coli BW25113
[20] = system: Staphylococcus aureus ATCC 25923
[21] = system: Klebsiella pneumoniae ATCC 700603

## CC(C)[C@H](NC(=O)[C@H](CCCCN)NC(=O)[C@H](Cc1ccccc1)NC(=O)[C@@H](NC(=O)[C@@H](NC(=O)[C@H](CCCCN)NC(=O)[C@@H](N)CCCCN)C(C)C)C(C)C)C(=O)N[C@@H](CCCCN)C(=O)N[C@@H](Cc1ccccc1)C(=O)N[C@@H](CCCCN)C(=O)N[C@@H](CCCCN)C(N)=O [KKVVFKVKFKK]
[1]
  MIC: 1.6 µM (≈ 2.2 µg/mL)
[2]
  MIC: 4.35 µM (≈ 6 µg/mL)
Cryptococcus neoformans
  MIC: 2.9 µM (≈ 4 µg/mL)
[3]
  MIC: 7.98 µM (≈ 11 µg/mL)
[4]
  MIC: 2.27 µM and 3.21 µM and 4.53 µM
[5]
  MIC: 2.27 µM (≈ 3.13 µg/mL)
Candida tropicalis
  MIC: 2.9 µM (≈ 4 µg/mL)
[6]
  MIC: 2.27 µM (≈ 3.13 µg/mL)
Candida glabrata
  MIC: 23.2 µM (≈ 32 µg/mL)
Candida albicans
  MIC: 5.8 µM (≈ 7.99 µg/mL)
[7]
  MIC: 3.2 µM (≈ 4.41 µg/mL)
[8]
  MIC: 1.6 µM (≈ 2.2 µg/mL)

## CC(C)C[C@H](NC(=O)[C@H](CC(C)C)NC(=O)[C@H](CCCCN)NC(=O)[C@H](CCCCN)NC(=O)[C@H](C)NC(=O)[C@H](CC(C)C)NC(=O)[C@H](CCCCN)NC(=O)[C@H](C)NC(=O)[C@H](CC(C)C)NC(=O)[C@H](CC(C)C)NC(=O)[C@H](CCCCN)NC(=O)[C@H](C)NC(=O)[C@@H](N)Cc1ccccc1)C(N)=O [FAKLLAKLAKKLL]
[2]
  MIC: 68.6 µM (≈ 99.9 µg/mL)
Pseudomonas fluorescens
  MIC: 5.49 µM (≈ 7.99 µg/mL)
[5]
  MIC: 3.43 µM (≈ 5 µg/mL)
[9]
  MIC: 11 µM (≈ 16 µg/mL)
[10]
  MIC: 2.75 µM (≈ 4 µg/mL)
Candida albicans
  MIC: 5.49 µM (≈ 7.99 µg/mL)
[11]
  MIC: 2.75 µM (≈ 4 µg/mL)
Staphylococcus aureus
  MIC: 2.75 µM (≈ 4 µg/mL)
Escherichia coli UB1005
  MIC: 2.75 µM (≈ 4 µg/mL)
[12]
  MIC: 2.75 µM (≈ 4 µg/mL)
[13]
  MIC: ≥ 43.9 µM
[14]
  MIC: 1.37 µM (≈ 2 µg/mL)
Pseudomonas aeruginosa
  MIC: 5.49 µM (≈ 7.99 µg/mL)
[15]
  MIC: 5.49 µM (≈ 7.99 µg/mL)
[16]
  MIC: 2.75 µM (≈ 4 µg/mL)

## CC[C@H](C)[C@H](NC(=O)[C@H](C)NC(=O)[C@H](CCCN=C(N)N)NC(=O)[C@H](Cc1cnc[nH]1)NC(=O)[C@@H](NC(=O)[C@H](C)NC(=O)[C@H](CCCN=C(N)N)NC(=O)[C@@H](NC(=O)CNC(=O)[C@H](Cc1cnc[nH]1)NC(=O)[C@H](CO)NC(=O)[C@@H](NC(=O)[C@H](Cc1c[nH]c2ccccc12)NC(=O)CNC(=O)[C@@H](NC(=O)[C@@H](NC(=O)[C@H](Cc1cnc[nH]1)NC(=O)[C@H](C)NC(=O)[C@@H](NC(=O)[C@@H](N)Cc1ccccc1)[C@@H](C)CC)[C@@H](C)CC)[C@@H](C)CC)[C@@H](C)CC)C(C)C)[C@@H](C)CC)C(=O)N[C@@H](Cc1cnc[nH]1)C(N)=O [FIAHIIGWISHGVRAIHRAIH]
Escherichia coli MG1655
  MIC: 16 µM and ≥ 32 µM
Aeromonas hydrophila
  MIC: ≥ 128 µM
Vibrio harveyi
  MIC: ≥ 32 µM

## CC[C@H](C)[C@H](NC(=O)[C@H](CCCN=C(N)N)NC(=O)[C@@H](N)Cc1c[nH]c2ccccc12)C(=O)N[C@@H](CCCN=C(N)N)C(=O)N[C@@H](CCCN=C(N)N)C(=O)N[C@@H](CCCN=C(N)N)C(=O)N1CCC[C@H]1C(=O)N1CCC[C@H]1C(=O)N[C@@H](CCCN=C(N)N)C(=O)N[C@@H](CC(C)C)C(=O)N1CCC[C@H]1C(=O)N[C@@H](CCCN=C(N)N)C(=O)N1CCC[C@H]1C(=O)N[C@@H](CCCN=C(N)N)C(=O)N[C@@H](Cc1c[nH]c2ccccc12)C(=O)N[C@@H](CCCN=C(N)N)C(=O)O [WRIRRRPPRLPRPRWR]
[17]
  MIC: 3 µM (≈ 6.76 µg/mL)
[18]
  MIC: 32 µM (≈ 72.2 µg/mL)
[19]
  MIC: 64 µM (≈ 144 µg/mL)
Escherichia coli BW25113
  MIC: 2 µM (≈ 4.51 µg/mL)
[20]
  MIC: 32 µM (≈ 72.2 µg/mL)
[21]
  MIC: 4 µM (≈ 9.02 µg/mL)
